As usually defined, the inhibition is the relative decrease from the control value, in per cent.

One experiment addresses T1, FGFR1 (Homo sapiens, UniProt P11362).
T1 construct: purchased Millipore
The experiment in a line: ELISA kinase assay, FGFR1 enzymatic activity. The settings on record: for inhibition at 0.01 µM / inhibition at 0.1 µM / inhibition at 1 µM / FGFR1 Inhibition (%): mean of two separate experiments; for IC50: mean ± SD from two separate experiments. The format is biochemical. On the procedure:
The effects of compounds on the activities of indicated (FGFR1 and c-Met) kinases were determined using enzyme-linked immunosorbent assays (ELISAs) with purified recombinant proteins. Briefly, 20 μg/mL poly (Glu, Tyr)4:1 (Sigma, St. Louis, MO, USA) was precoated in 96-well plates as a substrate. A 50-μL aliquot of 10 μmol/L ATP solution diluted in kinase reaction buffer (50 mmol/L HEPES (pH 7.4), 50 mmol/L MgCl2, 0.5 mmol/L MnCl2, 0.2 mmol/L Na3VO4, and 1 mmol/L DTT) was added to each well; 1 μL of various concentrations of compounds diluted in 1% DMSO (v/v) (Sigma) were then added to each reaction well. DMSO (1%, v/v) was used as the negative control. The kinase reaction was initiated by the addition of purified tyrosine kinase proteins FGFR1 (Millipore, Darmstadt, Germany) or c-Met (Millipore) diluted in 49 μL of kinase reaction buffer. After incubation for 60 min at 37 °C, the plate was washed three times with phosphate-buffered saline (PBS) containing 0.1% Tween 20 (T-PBS). Anti-phosphotyrosine (PY99) antibody (Sanra Cruz, Dallas, TX, USA) (100 μL; 1:500, diluted in 5 mg/mL bovine serum albumin (BSA) T-PBS) was then added. After a 30-min incubation at 37 °C, the plate was washed three times, and 100 μL of horseradish peroxidase-conjugated goat anti-mouse IgG (Calbiochem, Shanghai, China) (1:2000, diluted in 5 mg/mL BSA T-PBS) was added. The plate was then incubated at 37 °C for 30 min, and washed three times. A 100-μL aliquot of a solution containing 0.03% H2O2 and 2 mg/mL o-phenylenediamine in 0.1 mol/L citrate buffer (pH 5.5) was added. The reaction was terminated by the addition of 50 μL of 2 mol/L H2SO4 as the color changed, and the plate was analyzed using a multi-well spectrophotometer (SpectraMAX 190, Molecular Devices, Palo Alto, CA, USA) at 490 nm. The inhibition rate (%) was calculated using the following equation:IR = [1 − (A490/A490control)] × 100%.(1) where IR, A490, and A490control are the inhibition rate, the absorbance value of the tested compound at 490 nm, and the absorbance value of the negative control compound at 490 nm, respectively. The IC50 values were calculated from the inhibition curves in two separate experiments.
(In an ELISA, binding on a coated surface is turned into a signal by an enzyme label.)

For experiment [1], the system named is KG1 leukemia cell line harboring FGFR1OP-FGFR1 fusion. Nature of the experiment: Cell proliferation assay in KG1 cells (SRB or MTT, 72 h). The format is cell-based. The settings on record: Homo sapiens, KG-1, mean ± SD from two separate experiments, read-out: KG1 IC50 (antiproliferation activity). On the procedure: Cell proliferation was examined in a FGFR1-translocated KG1 leukemia cell line harboring FGFR1OP-FGFR1 fusion. The original KG1 cell line was purchased from ATCC (CRL-8031), and cultured according the ATCC standard protocol. Cells were seeded in 96-well tissue culture plates. On the next day, the cells were exposed to various concentrations of compounds and further cultured for 72 h. Cell proliferation was then determined using sulforhodamine B (SRB, from Sigma-Aldrich, St Louis, MO, USA) or the thiazolyl blue tetrazolium bromide (MTT, from Sigma-Aldrich, St Louis, MO, USA) assay. The IC50 values were calculated by concentration- response curve fitting using the four-parameter method.

T1 sequence (P11362 22-822): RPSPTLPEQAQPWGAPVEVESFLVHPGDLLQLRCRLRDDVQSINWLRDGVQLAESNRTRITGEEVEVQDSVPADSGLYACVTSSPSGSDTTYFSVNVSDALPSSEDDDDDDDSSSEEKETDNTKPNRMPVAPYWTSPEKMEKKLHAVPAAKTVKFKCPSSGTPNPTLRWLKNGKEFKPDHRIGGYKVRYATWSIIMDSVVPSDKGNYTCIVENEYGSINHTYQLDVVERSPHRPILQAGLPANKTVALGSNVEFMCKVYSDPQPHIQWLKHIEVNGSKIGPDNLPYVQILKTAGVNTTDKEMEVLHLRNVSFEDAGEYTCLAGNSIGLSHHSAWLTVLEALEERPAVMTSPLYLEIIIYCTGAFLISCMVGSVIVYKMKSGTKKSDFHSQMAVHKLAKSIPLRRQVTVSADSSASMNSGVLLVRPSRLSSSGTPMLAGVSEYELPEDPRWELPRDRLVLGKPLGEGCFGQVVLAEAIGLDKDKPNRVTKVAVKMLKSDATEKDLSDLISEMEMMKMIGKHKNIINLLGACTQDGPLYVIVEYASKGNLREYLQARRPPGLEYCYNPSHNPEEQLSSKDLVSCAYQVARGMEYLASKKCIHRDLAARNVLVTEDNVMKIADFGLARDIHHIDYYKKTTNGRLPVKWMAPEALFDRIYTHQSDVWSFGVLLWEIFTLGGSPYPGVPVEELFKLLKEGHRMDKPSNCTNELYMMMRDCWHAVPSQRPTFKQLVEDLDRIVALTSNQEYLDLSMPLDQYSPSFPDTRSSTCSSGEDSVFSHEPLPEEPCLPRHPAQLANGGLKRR

At FGFR1 (0.01 μM (10 nM)), `O=S(=O)(c1c[nH]cn1)n1ccc2ncc(-c3cn[nH]c3)nc21` [Compound 27, 5-((1H-Imidazol-4-yl)sulfonyl)-3-(1H-pyrazol-4-yl)-5H-pyrrolo[2,3-b]pyrazine] displayed an inhibition at 0.01 µM of 27.9%. The molecule also had an inhibition at 0.1 µM on FGFR1 (0.1 μM) of 71.9%. This molecule registered an inhibition at 1 µM at FGFR1 (1 μM) of 90.7%. Further, the results for the IC50 (at FGFR1; in experiment [1]) were 15.7 ± 4.8 nM and 187 ± 17.2 nM, respectively.
With `Cn1cnc(S(=O)(=O)n2ccc3ncc(-c4cn[nH]c4)nc32)c1` [Compound 28, 5-((1-Methyl-1H-imidazol-4-yl)sulfonyl)-3-(1H-pyrazol-4-yl)-5H-pyrrolo[2,3-b]pyrazine], on FGFR1 (0.01 μM (10 nM)), at 0.01 µM the inhibition was 12.5%. Besides, on FGFR1 (0.1 μM), the inhibition at 0.1 µM is 63.2%. For the same molecule, at 1 µM the inhibition against FGFR1 (1 μM) was 88.8%. The IC50 against FGFR1 was 15.4 ± 3 nM; in experiment [1], 98.5 ± 19.1 nM.
For `CCn1cnc(S(=O)(=O)n2ccc3ncc(-c4cn[nH]c4)nc32)c1` [Compound 29, 5-((1-ethyl-1H-imidazol-4-yl)sulfonyl)-3-(1H-pyrazol-4-yl)-5H-pyrrolo[2,3-b]pyrazine], in that order: 53.7%, 79.5%, 94.6%, 3 ± 0.7 nM and 17.4 ± 8.7 nM.
For the molecule `O=S(=O)(c1cnc2cccnn12)n1ccc2ncc(-c3cn[nH]c3)nc21` [Compound 35, 5-(Imidazo[1,2-b]pyridazin-3-ylsulfonyl)-3-(1H-pyrazol-4-yl)-5H-pyrrolo[2,3-b]pyrazine], at FGFR1 (0.01 μM (10 nM)), the inhibition at 0.01 µM turned out to be 31.8%. Besides, the inhibition at 0.1 µM against FGFR1 (0.1 μM) was found to be 68.7%. The molecule further showed an inhibition at 1 µM on FGFR1 (1 μM) of 90.6%.
Consider “Methyl 2-(4-(5-((1-(2-fluoroethyl)-1H-imidazol-4-yl)sulfonyl)-5H-pyrrolo[2,3-b]pyrazin-3-yl)-1H-pyrazol-1-yl)acetate [Compound 17]”, for which the entries for the “FGFR1 Inhibition (%)” value at FGFR1 (0.01 μM (10 nM)), on FGFR1 (0.1 μM) and on FGFR1 (1 μM) were −3.3%, 15.6% and 56.8%, respectively.

The record behind these values is PMC6017193, “Structure-Based Discovery of a Series of 5H-Pyrrolo[2,3-b]pyrazine FGFR Kinase Inhibitors” (Molecules : A Journal of Synthetic Chemistry and Natural …, 2018).
